Target: T1, Neutrophil elastase (Homo sapiens, UniProt P08246)
T1 sequence (P08246 whole entry): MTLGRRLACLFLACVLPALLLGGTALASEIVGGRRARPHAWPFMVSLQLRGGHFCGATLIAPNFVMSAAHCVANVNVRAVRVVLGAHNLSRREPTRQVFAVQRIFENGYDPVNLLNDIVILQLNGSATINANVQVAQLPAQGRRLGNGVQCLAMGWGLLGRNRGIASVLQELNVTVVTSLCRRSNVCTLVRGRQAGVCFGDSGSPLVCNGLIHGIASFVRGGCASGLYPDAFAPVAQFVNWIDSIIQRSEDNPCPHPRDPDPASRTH
Assay: Inhibition of human neutrophil elastase using chromogenic substrate (N-MeOSuc-Ala-Ala-Pro-Val-p-nitroanilide after 120 mins

IC50 [µM]	Structure (SMILES)
> 500	Cc1oc(=O)n(Cc2ccccc2)c1O
> 500	COc1ccc(C(=O)n2c(O)c(C)oc2=O)cc1

Source: BindingDB's records for doi:10.1016/j.bmcl.2012.04.093 (University of Lisbon, 2012)
